Series [1] addresses T1, Peroxisome proliferator-activated receptor gamma (Homo sapiens, UniProt P37231).
T1 sequence (P37231 whole entry): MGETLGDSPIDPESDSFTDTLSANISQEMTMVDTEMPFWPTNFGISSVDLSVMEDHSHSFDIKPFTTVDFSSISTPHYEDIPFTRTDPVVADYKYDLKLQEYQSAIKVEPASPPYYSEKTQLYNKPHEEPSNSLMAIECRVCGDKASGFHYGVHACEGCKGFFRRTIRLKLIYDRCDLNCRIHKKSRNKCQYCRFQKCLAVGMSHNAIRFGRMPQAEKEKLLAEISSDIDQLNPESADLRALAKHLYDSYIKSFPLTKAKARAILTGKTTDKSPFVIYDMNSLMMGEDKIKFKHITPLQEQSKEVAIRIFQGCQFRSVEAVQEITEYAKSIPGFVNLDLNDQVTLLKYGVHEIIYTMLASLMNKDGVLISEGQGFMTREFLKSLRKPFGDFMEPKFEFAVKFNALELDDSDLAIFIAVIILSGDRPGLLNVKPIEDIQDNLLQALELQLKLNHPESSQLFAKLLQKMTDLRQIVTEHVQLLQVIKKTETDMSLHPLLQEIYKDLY
Description: Displacement of fluormone PPARgamma green from GST-tagged human PPARgamma-LBD after 2 hrs by fluorescence polarization assay. For orientation: Polarisation of emitted light reports the rotation of a fluorescent probe.

For series [2], the target named is T2, Nuclear receptor ROR-gamma (Homo sapiens, UniProt P51449).
T2 sequence (P51449 whole entry): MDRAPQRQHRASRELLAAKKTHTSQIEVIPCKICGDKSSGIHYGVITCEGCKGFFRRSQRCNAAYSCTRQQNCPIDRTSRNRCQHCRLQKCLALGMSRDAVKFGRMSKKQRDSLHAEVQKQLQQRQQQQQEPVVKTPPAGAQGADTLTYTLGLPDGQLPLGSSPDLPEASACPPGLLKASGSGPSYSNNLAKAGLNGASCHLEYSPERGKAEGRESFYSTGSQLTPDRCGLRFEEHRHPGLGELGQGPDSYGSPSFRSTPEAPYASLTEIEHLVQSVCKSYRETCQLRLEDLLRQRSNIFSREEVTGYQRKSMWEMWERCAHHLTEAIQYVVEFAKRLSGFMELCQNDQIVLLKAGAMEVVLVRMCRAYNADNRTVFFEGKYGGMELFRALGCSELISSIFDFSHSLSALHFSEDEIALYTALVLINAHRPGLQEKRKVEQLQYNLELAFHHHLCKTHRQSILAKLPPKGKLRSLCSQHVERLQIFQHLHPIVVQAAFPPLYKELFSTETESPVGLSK
Description: Inverse agonist activity at N-terminal 6xHis-tagged human RORc ligand binding domain (241 to 486) expressed in bacterial expression system assessed as inhibition of SRC1 co-activator peptide recruitment after 3 hrs by TR-FRET analysis. Type of series: functional. Background: Time-resolved FRET reads energy transfer from a long-lived donor to a nearby acceptor.

A short description of series [3]: Lipophilicity, log D of the compound at pH 7.4. Type of series: physicochemical. Conditions: buffer.

Where only a bound is given, the exact number is not on record here.

In general, IC50 refers to the concentration needed to halve the response being measured. Low values mean greater potency in that assay, high ones weaker potency in that assay. The term EC50 denotes the concentration that produces a half-maximal response. The term logD denotes the decadic logarithm of the distribution of all forms, ionised or not, between an organic phase and buffer at a given pH. Lower therefore signals a more hydrophilic compound. Turning to `COc1cccc(Cl)c1C(=O)c1nc(-c2ccc(C(=O)O)cc2F)c2n1CCCC2`, the IC50 in series [1] turned out to be 5.5 µM. Besides, the half-maximal effective concentration (EC50) in series [2] turned out to be 240 nM. Moreover, the logD in series [3] was 0.8.
The like results for `O=C(c1c(Cl)cccc1C(F)(F)F)c1nc(N2CC[C@@H](C(=O)O)[C@H](O)C2)c2ccccn12` (stereo in doubt) were, in that order, more than 10 µM, 97 nM and 0.4.
As for `O=C(O)c1ccc(-c2nc(C(=O)c3c(Cl)cccc3C(F)(F)F)n3ccncc23)cc1`, the EC50 in series [2] was found to be 2600 nM. The logD in series [3] was 0.7.
As for `O=C(O)c1ccc(-c2cn3c(n2)C(c2c(Cl)cccc2C(F)(F)F)OCC3)cc1` (centres undefined), the EC50 in series [2] was more than 10000 nM.
`N#Cc1cccc(Cl)c1C(=O)c1nc(-c2ccc(C(=O)O)cc2F)c2n1CCCC2` displayed an IC50 in series [1] of 7.7 µM. Further, in series [2], the EC50 worked out at 250 nM. The logD in series [3] worked out at 0.7.
On to `O=C(c1c(Cl)cccc1C(F)(F)F)c1nc(N2CCC(O)(C(=O)O)CC2)c2ccccn12`, for which the EC50 in series [2] was determined as 6800 nM.
For `O=C(c1c(Cl)cccc1C(F)(F)F)c1nc(C2=CCC(C(=O)O)CC2)c2ccccn12` (centres undefined), the IC50 in series [1] is 1.8 µM. Moreover, in series [2], the EC50 was 100 nM. Moreover, the logD in series [3] was determined as 1.5.
On to `O=C(c1c(Cl)cccc1C(F)(F)F)c1nc([C@H]2CC[C@@H](C(=O)O)CC2)c2ccccn12`, for which, in series [2], the EC50 came to 4300 nM. The same compound displayed a logD in series [3] of 1.8.
With `O=C(O)c1ccc(-c2nc(C(=O)c3c(Cl)cccc3Cl)n3c2CCCC3)c(F)c1`, the IC50 in series [1] came out at 1.1 µM. Further, the 50% effective concentration (EC50) in series [2] came to 77 nM. Besides, the logD in series [3] came out at 1.5.
In the same order, the values of `O=C(O)c1ccc(-c2nc(C(=O)c3c(Cl)cccc3C(F)(F)F)n3cccnc23)cc1` are 4.2 µM, 84 nM and 0.3.
Turning to `O=C(O)c1ccc(-c2nc(C(=O)c3c(Cl)cccc3C(F)(F)F)n3c2CCCC3)cc1`, the IC50 in series [1] is 2.1 µM. The EC50 in series [2] was determined as 58 nM. The compound also showed a logD in series [3] of 0.8.
In the same order, the values of `O=C(O)c1ccc(-c2nc(C(=O)c3ccccc3C(F)(F)F)n3c2CCCC3)c(F)c1` are 5.6 µM, 840 nM and 1.4.
The like results for `O=C(O)c1ccc(-c2nc(C(=O)c3c(F)cccc3Cl)n3c2CCCC3)c(F)c1` were, in that order, 2.9 µM, 190 nM and 1.2.
`COc1cccc(C(F)(F)F)c1C(=O)c1nc(-c2ccc(C(=O)O)cc2F)c2n1CCCC2`: the half-maximal inhibitory concentration (IC50) in series [1] was 9.1 µM. Further, in series [2], the EC50 turned out to be 670 nM.
Regarding `N#Cc1cccc(C(F)(F)F)c1C(=O)c1nc(-c2ccc(C(=O)O)cc2F)c2n1CCCC2`, the IC50 in series [1] was more than 10 µM. Further, the EC50 in series [2] was 220 nM. In series [3], this compound yielded a logD of 0.7.
In the same order, the values of `O=C(c1c(Cl)cccc1C(F)(F)F)c1nc(N2CC[C@H](C(=O)O)[C@@H](O)C2)c2ccccn12` (stereo in doubt) are more than 10 µM, 440 nM and 0.3.
On to `O=C(O)c1ccc(-n2nc(C(=O)c3c(Cl)cccc3C(F)(F)F)c3c2CCCC3)cc1`, for which the EC50 in series [2] is more than 10000 nM. The logD in series [3] is -0.3.
With `O=C(O)c1ccc(-c2nn(C(=O)c3c(Cl)cccc3C(F)(F)F)c3ccccc23)cc1`, in series [3], the pH-dependent lipophilicity (logD) stood at 2.9.
For the compound `O=C(c1c(Cl)cccc1C(F)(F)F)c1nc([C@H]2CC[C@H](C(=O)O)CC2)c2ccccn12`, the 50% effective concentration (EC50) in series [2] was found to be 400 nM. The compound also came in with a logD in series [3] of 1.3.
In series [1], `O=C(c1c(Cl)cccc1C(F)(F)F)c1nc(N2CCC(C(=O)O)CC2)c2ccccn12` registered an IC50 of more than 10 µM. Besides, the EC50 in series [2] turned out to be 540 nM. This compound came in with a logD in series [3] of 0.4.
